≈ marks a conversion by molar mass, not a printed value.
Legend:
[1] = test system: drug-sensitive Mycobacterium tuberculosis strains; settings: drug-sensitive M. tuberculosis; cited from earlier work
[2] = test system: TB aerosol lung infection model; settings: in vivo; cited from earlier work
Mtb. H37Rv = test: Antibacterial susceptibility testing, broth microdilution MIC; type: cell-based, Mycobacterium tuberculosis; settings: M. tuberculosis H37Rv ATCC 27294, 7 days, 37° C., no visible growth; for MIC: Mycobacterium tuberculosis, ATCC 27294 / H37Rv, 168 h, read-out: MIC against mycobacterium tuberculosis Mtb. H37Rv
[3] = In vitro solubility in buffer at different pH (HPLC); settings: for solubility at 5 min: kinetic from dmso stock
physchem = settings: kinetic from dmso stock
[4] = pH 1.2, simulated gastric fluid

SMILES: C[C@@H]1[C@H]2C[C@@H](C[C@H]1NC(=O)c1cc3c(F)cc(F)cc3[nH]1)C2(C)C [4,6-difluoro-N-((1R,2R,3R,5S)-2,6,6-trimethylbicyclo[3.1.1]heptan-3-yl)-1H-indole-2-carboxamide]
- MIC [1]: 0.012 µM (≈ 0.00399 µg/mL)
- SI [1]: ≥ 16000
- activity in the TB aerosol lung infection model (in words) [2]: excellent activity

SMILES: CC1(C)CCC(NC(=O)c2cc3ccccc3[nH]2)CC1 [Compound (a), N-(4,4-dimethylcyclohexyl)-1H-indole-2-carboxamide]
- MIC (Mtb. H37Rv): 0.06 µg/mL (≈ 0.222 µM)

SMILES: C[Si]1(C)CCC(NC(=O)c2cc3ccccc3[nH]2)CC1 [Compound (b), N-(1,1-dimethylsilinan-4-yl)-1H-indole-2-carboxamide]
- MIC (Mtb. H37Rv): 0.03 µg/mL (≈ 0.105 µM)

SMILES: C[Si]1(C)CCN(NC(=O)c2cc3ccccc3[nH]2)CC1 [Compound (c), N-(4,4-dimethyl-1,4-azasilinan-1-yl)-1H-indole-2-carboxamide]
- MIC (Mtb. H37Rv): 2 µg/mL (≈ 6.96 µM)

SMILES: C[Si]1(C)CCN(C(=O)c2cc3ccccc3[nH]2)CC1 [Compound (d), (4,4-dimethyl-1,4-azasilinan-1-yl)(1H-indol-2-yl)methanone]
- MIC (Mtb. H37Rv): 32 µg/mL (≈ 117 µM)

SMILES: C[Si]1(C)CCC(NC(=O)c2cc3c(Cl)cc(Cl)cc3[nH]2)CC1 [Compound (e), 4,6-dichloro-N-(1,1-dimethylsilinan-4-yl)-1H-indole-2-carboxamide]
- MIC (Mtb. H37Rv): 0.03 µg/mL (≈ 0.0844 µM)

SMILES: C[Si]1(C)CCN(NC(=O)c2cc3c(Cl)cc(Cl)cc3[nH]2)CC1 [Compound (f), 4,6-dichloro-N-(4,4-dimethyl-1,4-azasilinan-1-yl)-1H-indole-2-carboxamide]
- MIC (Mtb. H37Rv): 0.03 µg/mL (≈ 0.0842 µM)
- aqueous solubility at the acidic pH (in words) [3]: good aqueous solubility
- solubility at 5 min [3, 4]: 40.4 µM (≈ 14.4 µg/mL)
- solubility at 5 min ([3]; pH 2.2, aqueous buffer): 26.3 µM (≈ 9.37 µg/mL)
- solubility at 5 min ([3]; pH 4.5, aqueous buffer): 2.57 µM (≈ 0.916 µg/mL)
- solubility at 5 min ([3]; pH 7.4, aqueous buffer): 2.57 µM (≈ 0.916 µg/mL)
- solubility at 5 min ([3]; pH 10.2, aqueous buffer): 2.7 µM (≈ 0.962 µg/mL)

SMILES: C[Si]1(C)CCN(C(=O)c2cc3c(Cl)cc(Cl)cc3[nH]2)CC1 [Compound (g), (4,6-dichloro-1H-indol-2-yl)(4,4-dimethyl-1,4-azasilinan-1-yl)methanone]
- MIC (Mtb. H37Rv): 16 µg/mL (≈ 46.9 µM)

SMILES: CC1(C)CCN(NC(=O)c2cc3c(Cl)cc(Cl)cc3[nH]2)CC1 [Compound (h), 4,6-dichloro-N-(4,4-dimethylpiperidin-1-yl)-1H-indole-2-carboxamide]
- solubility at 5 min (physchem; [4]): 41.1 µM (≈ 14 µg/mL)
- solubility at 5 min (physchem; pH 2.2, aqueous buffer): 30 µM (≈ 10.2 µg/mL)
- solubility at 5 min (physchem; pH 4.5, aqueous buffer): 8.6 µM (≈ 2.93 µg/mL)
- solubility at 5 min (physchem; pH 7.4, aqueous buffer): 6.32 µM (≈ 2.15 µg/mL)
- solubility at 5 min (physchem; pH 10.2, aqueous buffer): 8.67 µM (≈ 2.95 µg/mL)

SMILES: C[Si]1(C)CCC(NC(=O)c2cc3c(F)cc(F)cc3[nH]2)CC1 [Compound (i), N-(1,1-dimethylsilinan-4-yl)-4,6-difluoro-1H-indole-2-carboxamide]
- MIC (Mtb. H37Rv): 0.03 µg/mL (≈ 0.093 µM)
- solubility at 5 min ([3]; pH 10.2, aqueous buffer): 9.03 µM (≈ 2.91 µg/mL)

SMILES: C[Si]1(C)CCN(NC(=O)c2cc3c(F)cc(F)cc3[nH]2)CC1 [Compound (j), N-(4,4-dimethyl-1,4-azasilinan-1-yl)-4,6-difluoro-1H-indole-2-carboxamide]
- MIC (Mtb. H37Rv): 0.125 µg/mL (≈ 0.386 µM)
- aqueous solubility at the acidic pH (in words) [3]: good aqueous solubility
- solubility at 5 min [3, 4]: 49.7 µM (≈ 16.1 µg/mL)
- solubility at 5 min ([3]; pH 2.2, aqueous buffer): 31.3 µM (≈ 10.1 µg/mL)
- solubility at 5 min ([3]; pH 4.5, aqueous buffer): 1.01 µM (≈ 0.327 µg/mL)
- solubility at 5 min ([3]; pH 7.4, aqueous buffer): 1 µM (≈ 0.323 µg/mL)
- solubility at 5 min ([3]; pH 10.2, aqueous buffer): 1.1 µM (≈ 0.356 µg/mL)

SMILES: C[Si]1(C)CCN(C(=O)c2cc3c(F)cc(F)cc3[nH]2)CC1 [Compound (k), (4,6-difluoro-1H-indol-2-yl)(4,4-dimethyl-1,4-azasilinan-1-yl)methanone]
- MIC (Mtb. H37Rv): 32 µg/mL (≈ 104 µM)

SMILES: CC1(C)CCN(NC(=O)c2cc3c(F)cc(F)cc3[nH]2)CC1 [Compound (l), N-(4,4-dimethylpiperidin-1-yl)-4,6-difluoro-1H-indole-2-carboxamide]
- solubility at 5 min (physchem; [4]): 49.6 µM (≈ 15.3 µg/mL)
- solubility at 5 min (physchem; pH 2.2, aqueous buffer): 46.4 µM (≈ 14.3 µg/mL)
- solubility at 5 min (physchem; pH 4.5, aqueous buffer): 17.3 µM (≈ 5.31 µg/mL)
- solubility at 5 min (physchem; pH 7.4, aqueous buffer): 29.4 µM (≈ 9.04 µg/mL)
- solubility at 5 min (physchem; pH 10.2, aqueous buffer): 21.4 µM (≈ 6.57 µg/mL)

SMILES: C[Si]1(C)CCN(NC(=O)c2cc3c(Cl)cc(Cl)cc3[nH]2)CC1.Cl [Compound (m), 4,6-dichloro-N-(4,4-dimethyl-1,4-azasilinan-1-yl)-1H-indole-2-carboxamide hydrochloride]
- aqueous solubility at the acidic pH (in words) [3]: good aqueous solubility
- solubility at 5 min [3, 4]: 38.6 µM
- solubility at 5 min ([3]; pH 2.2, aqueous buffer): 28.4 µM
- solubility at 5 min ([3]; pH 4.5, aqueous buffer): 2.55 µM
- solubility at 5 min ([3]; pH 7.4, aqueous buffer): 2.73 µM
- solubility at 5 min ([3]; pH 10.2, aqueous buffer): 2.46 µM

SMILES: CC1(C)CCN(NC(=O)c2cc3c(Cl)cc(Cl)cc3[nH]2)CC1.Cl [Compound (n), 4,6-dichloro-N-(4,4-dimethylpiperidin-1-yl)-1H-indole-2-carboxamide hydrochloride]
- solubility at 5 min (physchem; [4]): 42.6 µM
- solubility at 5 min (physchem; pH 2.2, aqueous buffer): 26.2 µM
- solubility at 5 min (physchem; pH 4.5, aqueous buffer): 7.24 µM
- solubility at 5 min (physchem; pH 7.4, aqueous buffer): 10.6 µM
- solubility at 5 min (physchem; pH 10.2, aqueous buffer): 9.89 µM

SMILES: CC1(C)CCC(NC(=O)c2cc3c(Cl)cc(Cl)cc3[nH]2)CC1 [NITD 304, reference compound]
- MIC against mycobacterium tuberculosis Mtb. H37Rv (Mtb. H37Rv): 0.06 µg/mL (≈ 0.177 µM)
- Solubility in DMSO (standard solution) ([3]; DMSO @ 10 μM Concentration): Insoluble in DMSO @ 10 μM Concentration.

SMILES: CC1(C)CCC(NC(=O)c2cc3c(F)cc(F)cc3[nH]2)CC1 [NITD 349, reference compound]
- MIC against mycobacterium tuberculosis Mtb. H37Rv (Mtb. H37Rv): 0.03 µg/mL (≈ 0.0979 µM)
- Solubility pH 1.2 ([3]; buffer pH 1.2): 0.24 μM
- Solubility pH 2.2 ([3]; buffer pH 2.2): 0.29 μM
- Solubility pH 4.5 ([3]; buffer pH 4.5): 0.15 μM
- Solubility pH 7.4 ([3]; buffer pH 7.4): 0.24 μM
- Solubility pH 10.2 ([3]; buffer pH 10.2): 7.30 μM

— US11718633B2, “Indole compounds, process for the preparation and use thereof” (priority 2018, dated 2023)
